Where a name gives a salt, the structure may show the parent alone.
Target: T1, human CGT (ceramide galactosyltransferase), CHO/CGT lysate (Homo sapiens, UniProt Q16880)
T1 construct: Full-length human CGT cDNA was cloned into the BamH1/Xho1 site of pcDNA3.1 (+); expressed in transfected cells; host or cells: Chinese hamster ovary (CHO) cells; lysate prepared with M-PER
T1 sequence (Q16880 21-541): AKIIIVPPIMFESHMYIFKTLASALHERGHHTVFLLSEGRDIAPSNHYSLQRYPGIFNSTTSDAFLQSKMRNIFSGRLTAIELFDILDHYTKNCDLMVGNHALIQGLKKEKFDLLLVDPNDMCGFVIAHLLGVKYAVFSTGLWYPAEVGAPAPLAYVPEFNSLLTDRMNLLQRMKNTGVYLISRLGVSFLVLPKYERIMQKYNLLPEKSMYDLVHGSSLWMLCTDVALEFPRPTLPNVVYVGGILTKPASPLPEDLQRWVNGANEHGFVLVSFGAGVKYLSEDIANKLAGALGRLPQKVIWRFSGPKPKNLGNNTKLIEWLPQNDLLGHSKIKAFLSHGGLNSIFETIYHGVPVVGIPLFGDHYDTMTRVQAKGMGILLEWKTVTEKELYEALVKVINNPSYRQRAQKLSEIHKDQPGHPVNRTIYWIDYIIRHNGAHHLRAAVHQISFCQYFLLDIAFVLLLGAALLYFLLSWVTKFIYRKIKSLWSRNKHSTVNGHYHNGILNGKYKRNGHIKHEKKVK
Experiment: CGT enzyme assay, RapidFire/MS/MS readout with 0.01% Tween added (Table 1 ranges with two asterisks **)
Type: biochemical
Settings: CGT enzymatic assay; range with two asterisks (**): RapidFire/MS/MS method with 0.01% Tween added
Summary of the method: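 Lysate (4 μg) of CHO cells transfected with full-length human CGT incubated 1 h at 37 °C with compound (0.001–50 μM) in pH 7.2 HEPES buffer with 10 μM C6-NBD-dihydro-ceramide, 17.5 μM UDP-galactose, Mg2+/Mn2+, CHAPS, BSA, 0.5% DMSO; ** set also contained 0.01% Tween 80. Product quantified by RapidFire/MS/MS, normalized to internal standard; IC50 from sigmoidal variable-slope fits.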

| SMILES | IC50 |
| --- | --- |
| COc1cc(C(F)(F)[C@H](NS(=O)(=O)c2ccc3cc(OC4CCCC4)ccc3c2)C(=O)N2C[C@H]3CNC[C@H]3C2)ccc1-c1ccc(Cl)cc1 [Compound 197-1, N-((R)-1-(4′-chloro-2-methoxy-[1,1′-biphenyl]-4-yl)-1,1-difluoro-3-((3aR,6aS)-hexahydropyrrolo[3,4-c]pyrrol-2(1H)-yl)-3-oxopropan-2-yl)-6-(cyclopentyloxy)naphthalene-2-sulfonamide] | < 1 µM |
| NC(=O)C1CCN(C(=O)[C@H](NS(=O)(=O)c2ccc3cc(OC4CCCC4)ccc3c2)C(F)(F)c2ccc(-c3ccc(Cl)cc3)cc2)CC1 [Compound 173-2, (S)-1-(3-(4′-chloro-[1,1′-biphenyl]-4-yl)-2-((6-(cyclopentyloxy)naphthalene)-2-sulfonamido)-3,3-difluoropropanoyl)piperidine-4-carboxamide] | 30 to 100 µM |
| NC1CCN(C(=O)[C@@H](NS(=O)(=O)c2ccc(OCC3CCCCC3)cc2)C(F)(F)c2cccc(-c3ccc(Cl)cc3)c2)CC1 [Compound 181-1, (R)—N-(3-(4-aminopiperidin-1-yl)-1-(4′-chloro-[1,1′-biphenyl]-3-yl)-1,1-difluoro-3-oxopropan-2-yl)-4-(cyclohexylmethoxy)benzenesulfonamide trifluoroacetate] | 1 to 10 µM |
| NC1CC2CCC(C1)N2C(=O)[C@H](NC(=O)[C@H](O)c1ccc2cc(OC3CCCC3)ccc2c1)C(F)(F)c1ccc2cc(Br)ccc2c1 (stereo partly drawn) [Compound 158-4, (2R)—N-((2S)-3-(3-amino-8-azabicyclo[3.2.1]octan-8-yl)-1-(6-bromonaphthalen-2-yl)-1,1-difluoro-3-oxopropan-2-yl)-2-(6-(cyclopentyloxy)naphthalen-2-yl)-2-hydroxyacetamide trifluoroacetate] | 30 to 100 µM |
| NC1CC2CCC(C1)N2C(=O)[C@H](NS(=O)(=O)c1cc2ccc(OC3CCCC3)cc2s1)C(F)(F)c1ccc(Br)cc1 (stereo partly drawn) [Compound 167-2, N-((2 S)-3-(3-amino-8-azabicyclo[3.2.1]octan-8-yl)-1-(4-bromophenyl)-1,1-difluoro-3-oxopropan-2-yl)-6-(cyclopentyloxy)benzo[b]thiophene-2-sulfonamide trifluoroacetate] | 1 to 10 µM |
| N[C@H]1CC2CCC1N2C(=O)[C@@H](NS(=O)(=O)c1ccc2cc(OC3CCCC3)ccc2c1)C(F)(F)c1ccc(-c2ccc(Cl)cc2)cc1 (stereo partly drawn) [Compound 180-1, N-((2R)-3-((2S)-2-amino-7-azabicyclo[2.2.1]heptan-7-yl)-1-(4′-chloro-[1,1′-biphenyl]-4-yl)-1,1-difluoro-3-oxopropan-2-yl)-6-(cyclopentyloxy)naphthalene-2-sulfonamide] | 1 to 10 µM |
| C=C(c1ccc(C(F)(F)[C@@H](NS(=O)(=O)c2ccc(OCC3CCCCC3)cc2)C(=O)N2CCC(N)CC2)cc1)C(F)(F)F [Compound 193-2, (S)-N-(3-(4-aminopiperidin-1-yl)-1,1-difluoro-3-oxo-1-(4-(3,3,3-trifluoroprop-1-en-2-yl)phenyl)propan-2-yl)-4-(cyclohexylmethoxy)benzenesulfonamide] | 30 to 100 µM |
| NC1CCN(C(=O)[C@@H](NS(=O)(=O)c2ccc3cc(OC4CCCC4)ccc3c2)C(F)(F)c2ccc(Cl)c(OC3CCCC3)c2)CC1 [Compound 170-1, (R)—N-(3-(4-aminopiperidin-1-yl)-1-(4-chloro-3-(cyclopentyloxy)phenyl)-1,1-difluoro-3-oxopropan-2-yl)-6-(cyclopentyloxy)naphthalene-2-sulfonamide trifluoroacetate] | 1 to 10 µM |
| C=C(c1ccc(C(F)(F)[C@@H](NS(=O)(=O)c2ccc3cc(OC4CCCC4)ccc3c2)C(=O)N2CCC(N)CC2)cc1)C(F)(F)F [Compound 166-2, (S)—N-(3-(4-aminopiperidin-1-yl)-1,1-difluoro-3-oxo-1-(4-(3,3,3-trifluoroprop-1-en-2-yl)phenyl)propan-2-yl)-6-(cyclopentyloxy) naphthalene-2-sulfonamide] | 1 to 10 µM |
| CCOc1cc(-c2ccc(C(F)(F)[C@@H](NS(=O)(=O)c3ccc(OCC4CCCCC4)cc3)C(=O)N3CCC(N)CC3)cc2)ccc1Cl [Compound 153-2, (S)—N-(3-(4-aminopiperidin-1-yl)-1-(4′-chloro-3′-ethoxy-[1,1′-biphenyl]-4-yl)-1,1-difluoro-3-oxopropan-2-yl)-4-(cyclohexylmethoxy) benzenesulfonamide trifluoroacetate] | 30 to 100 µM |

The remaining lines, values ahead:

| IC50 | SMILES |
| --- | --- |
| 10 to 30 µM | NC1CCN(C(=O)[C@H](NS(=O)(=O)c2ccc(OCC3CCCCC3)cc2)C(F)(F)c2ccc(C3(C(F)(F)F)CC3)cc2)CC1 [Compound 196-2, (S)-N-(3-(4-aminopiperidin-1-yl)-1,1-difluoro-3-oxo-1-(4-(1-(trifluoromethyl)cyclopropyl)phenyl)propan-2-yl)-4-(cyclohexylmethoxy)benzenesulfonamide] |
| < 1 µM | C=C(c1ccc(C(F)(F)[C@H](NS(=O)(=O)c2ccc(OCC3CCCCC3)cc2)C(=O)N2CCC(N)CC2)cc1)C(F)(F)F [Compound 193-1, (R)-N-(3-(4-aminopiperidin-1-yl)-1,1-difluoro-3-oxo-1-(4-(3,3,3-trifluoroprop-1-en-2-yl)phenyl)propan-2-yl)-4-(cyclohexylmethoxy)benzenesulfonamide] |
| 1 to 10 µM | CCOc1cc(-c2ccc(C(F)(F)[C@H](NS(=O)(=O)c3ccc(OCC4CCCCC4)cc3)C(=O)N3CCC(N)CC3)cc2)ccc1Cl [Compound 153-1, (R)—N-(3-(4-aminopiperidin-1-yl)-1-(4′-chloro-3′-ethoxy-[1,1′-biphenyl]-4-yl)-1,1-difluoro-3-oxopropan-2-yl)-4-(cyclohexylmethoxy)benzenesulfonamide trifluoroacetate] |
| < 1 µM | COc1cc(C(F)(F)[C@H](NS(=O)(=O)c2ccc(OCC3CCCCC3)cc2)C(=O)N2CCC(N)CC2)ccc1Br [Compound 145-1, (R)—N-(3-(4-aminopiperidin-1-yl)-1-(4-bromo-3-methoxyphenyl)-1,1-difluoro-3-oxopropan-2-yl)-4-(cyclohexylmethoxy)benzenesulfonamide trifluoroacetate] |
| < 1 µM | N[C@@H]1CCN(C(=O)[C@@H](NS(=O)(=O)c2ccc(OCC3CCCCC3)cc2)C(F)(F)c2ccc(-c3ccc(Cl)cc3)cc2)C1 [Compound 155-1, N—((R)-3-((R)-3-aminopyrrolidin-1-yl)-1-(4′-chloro-[1,1′-biphenyl]-4-yl)-1,1-difluoro-3-oxopropan-2-yl)-4-(cyclohexylmethoxy)benzenesulfonamide trifluoroacetate] |
| 1 to 10 µM | N[C@H]1[C@@H]2CC[C@H]1CN(C(=O)[C@H](NS(=O)(=O)c1ccc3cc(OC4CCCC4)ccc3c1)C(F)(F)c1ccc(Cl)cc1)C2 [Compound 150-2, N—((S)-3-((1R,5S,8S)-8-amino-3-azabicyclo[3.2.1]octan-3-yl)-1-(4-chlorophenyl)-1,1-difluoro-3-oxopropan-2-yl)-6-(cyclopentyloxy)naphthalene-2-sulfonamide trifluoroacetate] |
| < 1 µM | CCCOc1cc(C(F)(F)[C@H](NS(=O)(=O)c2ccc3cc(OC4CCCC4)ccc3c2)C(=O)N2CCC(N)CC2)ccc1Cl [Compound 169-1, (R)—N-(3-(4-aminopiperidin-1-yl)-1-(4-chloro-3-propoxyphenyl)-1,1-difluoro-3-oxopropan-2-yl)-6-(cyclopentyloxy)naphthalene-2-sulfonamide trifluoroacetate] |
| 30 to 100 µM | NC1CCN(C(=O)[C@H](NS(=O)(=O)c2ccc(COC3CCCCC3)s2)C(F)(F)c2ccc(-c3ccc(Cl)cc3)cc2)CC1 [Compound 165-1, (S)—N-(3-(4-aminopiperidin-1-yl)-1-(4′-chloro-[1,1′-biphenyl]-4-yl)-1,1-difluoro-3-oxopropan-2-yl)-5-((cyclohexyloxy)methyl)thiophene-2-sulfonamide trifluoroacetate] |

Same assay, conditions: CGT enzyme assay, RapidFire/MS/MS method with 0.01% Tween added (range with two asterisks **)

| SMILES | IC50 |
| --- | --- |
| COc1cc(C(F)(F)[C@H](NS(=O)(=O)c2ccc(OCC3CCCCC3)cc2)C(=O)N2C3CCC2CC(N)C3)ccc1-c1ccc(Cl)cc1 (stereo partly drawn) [Compound 142-1, N-((2R)-3-(3-amino-8-azabicyclo[3.2.1]octan-8-yl)-1-(4′-chloro-2-methoxy-[1,1′-biphenyl]-4-yl)-1,1-difluoro-3-oxopropan-2-yl)-4-(cyclohexylmethoxy) benzenesulfonamide trifluoroacetate] | < 1 µM |
| COc1cc(C(F)(F)[C@@H](NS(=O)(=O)c2ccc(OCC3CCCCC3)cc2)C(=O)N2CCC(N)CC2)ccc1Br [Compound 145-2, (S)—N-(3-(4-aminopiperidin-1-yl)-1-(4-bromo-3-methoxyphenyl)-1,1-difluoro-3-oxopropan-2-yl)-4-(cyclohexylmethoxy) benzenesulfonamide trifluoroacetate] | 30 to 100 µM |
| COc1cc(C(F)(F)[C@@H](NS(=O)(=O)c2ccc3cc(OC4CCCC4)ccc3c2)C(=O)N2CCC(N)CC2)ccc1-c1ccc(Cl)cc1 [Compound 144-2, (S)—N-(3-(4-aminopiperidin-1-yl)-1-(4′-chloro-2-methoxy-[1,1′-biphenyl]-4-yl)-1,1-difluoro-3-oxopropan-2-yl)-6-(cyclopentyloxy) naphthalene-2-sulfonamide trifluoroacetate] | 1 to 10 µM |

From patent publication US20190322676A1, “CERAMIDE GALACTOSYLTRANSFERASE INHIBITORS FOR THE TREATMENT OF DISEASE” (BioMarin Pharmaceutical Inc., priority 2016, published 2019)
